Source: article PMC7549214 (Malaria Journal, 2020)
Read-outs that look alike come from different tables or passages of the source.

Legend:
Dd2 = experiment: microbe, parasite or virus in culture; assay type: cell-based; conditions: Plasmodium falciparum
male gametocytes = experiment: Male gametocyte functional viability assay; assay type: cell-based; conditions: Plasmodium falciparum
Protocol: Gametocyte cultures were tested for functional viability and maturity after 14 days. Testing functional viability was done by quantifying male gametocyte formation, which was carried out by withdrawing 200 μl of culture. Following this, culture was centrifuged, and the pellet was resuspended in 5 μl ookinete medium (RPMI medium with 25 mM HEPES, 50 mg/l hypoxanthine, 2 g/l sodium bicarbonate, 100 μM xanthurenic acid, and 10% A^+ human serum). The culture was observed under a microscope. […] The plates were then incubated at 37 °C for 24 h. Gamete formation was induced on day 15 and observed under the microscope following the method described by Ruecker et al.. The assay was performed using four independent biological replicates.

Cytotoxicity = assay type: cell-based; conditions: human, THP-1 cells
THP-1 = experiment: Cytotoxicity; assay type: cell-based
CYP2C9 = CYP2C9 (Homo sapiens, UniProt P11712); experiment: CYP inhibition; assay type: in vitro ADME; conditions: read-out: CYP inhibition IC50, CYP 2C9
Sequence of CYP2C9 (P11712 whole entry, species assumed, canonical isoform): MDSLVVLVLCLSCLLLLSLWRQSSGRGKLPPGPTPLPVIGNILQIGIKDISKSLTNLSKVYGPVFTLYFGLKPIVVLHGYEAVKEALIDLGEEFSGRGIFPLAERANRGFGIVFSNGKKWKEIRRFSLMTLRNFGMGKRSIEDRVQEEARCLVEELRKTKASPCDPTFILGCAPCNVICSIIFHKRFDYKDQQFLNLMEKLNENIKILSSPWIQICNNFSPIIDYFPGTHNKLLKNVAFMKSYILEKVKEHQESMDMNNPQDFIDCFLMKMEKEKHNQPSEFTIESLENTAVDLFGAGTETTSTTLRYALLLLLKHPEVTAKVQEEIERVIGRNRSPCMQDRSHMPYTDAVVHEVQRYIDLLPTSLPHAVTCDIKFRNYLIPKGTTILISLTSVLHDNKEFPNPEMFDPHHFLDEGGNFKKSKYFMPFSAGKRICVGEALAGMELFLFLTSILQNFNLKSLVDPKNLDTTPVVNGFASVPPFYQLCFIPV

human HDAC2 = human HDAC2 (Homo sapiens, UniProt Q92769); experiment: Isoform selectivity, recombinant HDAC isoforms; assay type: biochemical; conditions: single experiment assays
Sequence of human HDAC2 (Q92769 whole entry, canonical isoform): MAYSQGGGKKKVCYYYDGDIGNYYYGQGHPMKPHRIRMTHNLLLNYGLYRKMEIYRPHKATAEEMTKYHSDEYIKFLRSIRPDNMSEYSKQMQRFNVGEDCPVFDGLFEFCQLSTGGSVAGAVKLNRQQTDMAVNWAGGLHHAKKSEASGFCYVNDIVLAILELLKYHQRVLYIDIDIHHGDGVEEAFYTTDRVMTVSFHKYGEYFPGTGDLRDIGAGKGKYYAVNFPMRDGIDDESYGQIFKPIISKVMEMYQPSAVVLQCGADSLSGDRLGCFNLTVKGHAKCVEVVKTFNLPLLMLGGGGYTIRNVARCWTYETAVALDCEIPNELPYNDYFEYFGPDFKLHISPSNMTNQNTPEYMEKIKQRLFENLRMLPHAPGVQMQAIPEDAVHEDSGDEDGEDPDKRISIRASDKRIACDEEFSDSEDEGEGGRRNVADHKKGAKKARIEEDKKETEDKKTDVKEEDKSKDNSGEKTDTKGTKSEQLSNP
Protocol: Isoform selectivity was tested using recombinant HDAC isoforms (Biomol, USA).

Plasma protein binding [1] = assay type: in vitro ADME; conditions: dog, read-out: Plasma protein binding (% bound)
[2] = test system: Plasmodium falciparum strain 3D7; experiment: In vitro killing profile; assay type: cell-based; conditions: 10 × IC50
Protocol: Briefly, the assay used limiting dilution technique to quantify the number of parasites viable after drug treatment. […] Parasites were treated for […]. The drugs used were renewed daily over the entire treatment period. Samples of parasites were taken from the treated culture every 24 h (0, for control of the initial number of parasites, 24, 48, 72, 96, 120 h’ time points). Following this, the procedure was carried out to wash out the drugs, and drug-free parasites were cultured in 96-well plates by adding fresh erythrocytes and new media (RPMI 1640 medium). Three-fold serial dilution was used with the abovementioned samples after removing the drug to quantify the number of viable parasites after treatment. Parasites were cultured in microtitre plates to allow all wells with viable parasites to render detectable parasitaemia. Four independent serial dilutions were carried out with each sample to correct experimental variations. Samples were examined after 21 days of culturing. Additional sampling was done after 28 days to confirm the growth/no growth.

Microsomal stability = assay type: in vitro ADME, rat; conditions: RLM, Test Conc. 10 µM
in vitro [3] = assay type: in vitro ADME; conditions: dog, plasma
[4] = Repeated dose 14-day toxicity study;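 also: rats dosed once daily for 14 days, test item in Tween 80 plus methylcellulose vehicle at 10 mL/kg bw, compared against vehicle-treated G1 controls by one-way ANOVA with Dunnett test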
Protocol: The animal grouping was done by the method of body weight stratification and randomization. The animals procured for the study were weighed and grouped into body weight ranges. […] Tween 80 (0.1% (v/v)) + methylcellulose (0.5% (w/v)) was used as a vehicle and the test item was dosed at a dose volume of 10 mL/kg bw. The animals were dosed once a day for a period of 14 consecutive days. The test item was administered at concentrations as mentioned in the Table for G2, G3, G4, G5 groups whereas vehicle was administered to G1 group (vehicle control) at the volume of 10 mL/kg body weight. […] On days 2 to 13, animals were dosed in the fed state. During the study, observations were made for clinical signs and mortality, body weights, gross necropsy and organ weights. The data were subjected to statistical analyses using GraphPad Prism version 5.00, GraphPad Software. One way ANOVA with Dunnets post-test were done for different treatment groups compared with the control group data.

Plasma protein binding [5] = assay type: in vitro ADME; conditions: human
in vitro [6] = assay type: in vitro ADME; conditions: rat, plasma
[7] = Repeated dose 14-day toxicokinetics (TK) study; assay type: in vivo, Sprague–Dawley rats; conditions: for Cmax / half-life / AUC(0-inf) / AUC(0-t) / Tmax: Sprague-Dawley, rat, po, 100 mg/kg
[8] = test system: human HDAC (HeLa nuclear extract); experiment: HDAC activity screening, fluorescence-based, HeLa nuclear extract; assay type: biochemical
Protocol: HeLa nuclear extract was used as the enzyme source. […] The assay was performed in 96-well black microplates, and the total volume of the assay was set at 100 µl. […] The enzyme mixture was prepared by adding […] of the diluted enzyme (HeLa nuclear extract) to […] of HDAC buffer. From the enzyme mixture, 40 µl was taken and mixed with 10 µl of test compound (final concentration from 0.01 to 10 µM) or vehicle (control). The final mixture (50 µl) was added to each well which was then pre-incubated at 37 °C for 10 min. The HDAC reaction was started by adding 50 µl of HDAC substrate: […] The plate was incubated at 37 °C for 45 min. Trypsin stop solution (50 µl) was added to the well, and the plate was further incubated at 37 °C for 15 min to stop the reaction. The release of AMC was monitored by measuring the fluorescence at an excitation wavelength of 360 nm and an emission wavelength of 460 nm. Buffer and substrate alone served as blank.

[9] = both sexes, in vivo, rats, 100 mg/kg body weight
[10] = female, in vivo, female, day 1, 100 mg/kg bw
[11] = female, in vivo, female, day 14, 100 mg/kg bw
[12] = male, in vivo, male, day 1, 100 mg/kg bw
[13] = male, in vivo, male, day 14, 100 mg/kg bw

Compound: O=C(NO)c1ccc(Cn2cc(-c3ccc(CN4CCCC4)cc3)nn2)cc1 [FNDR-20123]
- IC50 (Dd2): 17.5 nM
- IC50 (male gametocytes): 190 nM
- IC50 (Cytotoxicity): 114000 nM
- Cytotoxicity to THP-1 cell line (THP-1): negligible cytotoxicity
- IC50 (CYP2C9): > 60000 nM
- IC50 (human HDAC2): 29 nM
- fraction unbound (Plasma protein binding [1]): > 0.8
- In vitro killing profile compared with standard drugs [2]: better than atovaquone and comparable to pyrimethamine
- Microsomal stability (% remaining at 120 min) (Microsomal stability): 74.56%
- remaining at 2 h, 10 µM (Microsomal stability; rat, liver microsomes, read-out: Microsomal stability (% remaining at 120 min)): > 75%
- remaining at 4 h (in vitro [3]): 97.7%
- Toxic effects on body weights and organ weights ([4]; 14-day oral, 50, 100 and 150 mg/kg body weight, male and female rats): no adverse toxic effects on body weights and organ weights
- Adverse clinical signs or mortality ([4]; 14-day repeat dose oral gavage, both sexes): did not reveal any adverse clinical signs or mortality
- Abnormality in body weight or gross organ pathology ([4]; 14-day, 100 mg/kg daily dose): did not show any abnormality in body weight or gross organ pathology
- Fasting body weight ([4]; female, G2 50 mg/kg): 149.51 g
- Body weight ([4]; female, G2 50 mg/kg bw, day 1): 146.45 g
- Body weight ([4]; female, G2 50 mg/kg bw, day 7): 150.70 g
- Body weight ([4]; female, G2 50 mg/kg bw, day 14): 161.49 g
- Body weight ([4]; female, G3 100 mg/kg bw, day 1): 146.70 g
- Body weight ([4]; female, G3 100 mg/kg bw, day 7): 145.63 g
- Body weight ([4]; female, G3 100 mg/kg bw, day 14): 158.43 g
- Fasting body weight ([4]; female, G4 150 mg/kg): 134.25 g
- Body weight ([4]; female, G4 150 mg/kg bw, day 7): 139.82 g
- Body weight ([4]; female, G4 150 mg/kg bw, day 14): 142.91 g
- Fasting body weight ([4]; male, G2 50 mg/kg): 189.75 g
- Body weight ([4]; male, G2 50 mg/kg bw, day 1): 166.04 g
- Body weight ([4]; male, G2 50 mg/kg bw, day 7): 190.40 g
- Body weight ([4]; male, G2 50 mg/kg bw, day 14): 209.30 g
- Fasting body weight ([4]; male, G3 100 mg/kg): 163.82 g
- Body weight ([4]; male, G3 100 mg/kg bw, day 1): 166.39 g
- Body weight ([4]; male, G3 100 mg/kg bw, day 7): 173.72 g
- Body weight ([4]; male, G3 100 mg/kg bw, day 14): 177.16 g
- Fasting body weight ([4]; male, G4 150 mg/kg): 174.95 g
- Body weight ([4]; male, G4 150 mg/kg bw, day 1): 170.86 g
- Body weight ([4]; male, G4 150 mg/kg bw, day 7): 180.10 g
- Body weight ([4]; male, G4 150 mg/kg bw, day 14): 188.27 g
- Plasma protein binding (% bound) (Plasma protein binding [5]): 57.30%
- fraction unbound (Plasma protein binding [5]; plasma, Human, read-out: Plasma protein binding (% bound) (converted)): 0.43
- remaining at 4 h (in vitro [6]): 88.9%
- Accumulation (toxicokinetic profile) ([7]; 100 mg/kg bw oral gavage, 14 days): no accumulation
- Cmax [7, 9]: 1100 nM
- half-life [7, 9]: 5.5 h
- half-life ([7]; female, blood, female, day 1, 100 mg/kg bw): 3.21 ± 0.41 h
- AUC(0-inf) [7, 10]: 448 ± 113 ng·h/mL
- AUC(0-t) [7, 10]: 345 ± 71.6 ng·h/mL
- Cmax [7, 10]: 229 ± 69.3 ng/mL
- Tmax [7, 10]: 0.28 ± 0.21 h
- AUC(0-inf) [7, 11]: 573 ± 23.1 ng·h/mL
- AUC(0-t) [7, 11]: 480 ± 49.7 ng·h/mL
- Cmax [7, 11]: 207 ± 36.1 ng/mL
- Tmax [7, 11]: 0.14 ± 0.1 h
- half-life ([7]; male, blood, male, day 1, 100 mg/kg bw): 5.72 ± 4.1 h
- half-life ([7]; male, blood, male, day 14, 100 mg/kg bw): 2.3 ± 0.55 h
- AUC(0-inf) [7, 12]: 1280 ± 282 ng·h/mL
- AUC(0-t) [7, 12]: 712 ± 234 ng·h/mL
- Cmax [7, 12]: 420 ± 174 ng/mL
- Tmax [7, 12]: 0.33 ± 0.14 h
- AUC(0-inf) [7, 13]: 1080 ± 216 ng·h/mL
- AUC(0-t) [7, 13]: 957 ± 181 ng·h/mL
- Cmax [7, 13]: 703 ± 362 ng/mL
- Tmax [7, 13]: 0.19 ± 0.1 h
- Human HDAC % inhibition @1μM ([8]; 1μM): 95%
- IC50 ([8]; HeLa nuclear extract, read-out: Human HDAC IC50): 3 nM
- IC50 ([8]; single experiment assays, read-out: IC50 HeLa nuclear extract): 3 nM
